The conditions of the series: Liquid, Closed cell (Static) method.

This note sets out measurements from the NIST ThermoML archive (doi:10.1021/acs.jced.7b00263).

SMILES strings stand for the structures. Numbers after ± are expanded uncertainties.

As a reminder, the vapor or sublimation pressure is the pressure of vapour in equilibrium with the condensed phase. Turning to `F/C=C\C(F)(F)F` [(Z)-1,3,3,3-tetrafluoro-1-propene], the “vapor or sublimation pressure” value reads like this: (353.17 K) 858.3 ± 1.4 kPa; (373.14 K) 1347.5 ± 2.1 kPa; (393.12 K) 2023.7 ± 3.2 kPa; (413.14 K) 2940.4 ± 4.6 kPa.
